Results from patent US20040242693A1, “Optically active mandelic acid and its derivative, and method for crystallization thereof” (priority 2001, published 2004).

Legend:
Type in all cases: physicochemical
[1] = Adhesiveness (crystals adhering to test tube wall); conditions: weight of adhering crystals / weight filled, test tube 16 mm
Description: Chloromandelic acid crystals were naturally dropped in a dry test tube having an inside diameter of 16 mm, so that the height of the crystals became approximately 10 cm. Thereafter, the test tube containing chloromandelic acid crystals was slowly inverted, so that the test tube was completely turned upside down and the crystals were dropped. Thereafter, the weight of the test tube was measured, and the weight of chloromandelic acid crystals adhered to the inner wall of the test tube was obtained. The ratio (%) of the weight of the adhering crystals to the weight of the initially filled chloromandelic acid crystals was defined as an index of adhesiveness.

[2] = Measurement of water content (Karl Fischer method); conditions: for Water content: dried crystals, Karl Fischer
Description: Measurement of Water Content
Water content was measured by the Karl Fischer method.

[3] = Measurement of filling (packing) density; conditions: natural drop into 50 ml measuring cylinder
Description: Measurement of Filling (Packing) Density
10 to 20 g of each of the crystals obtained in the above Examples and Comparative examples was weighed, and it was passed through a funnel with a diameter of 20 mm to naturally drop into a 50 ml measuring cylinder, so that the weight and volume of the crystals were measured and the filling density was calculated.

Appearance of crystals = conditions: dried crystals
Description: Subsequently, the (R)-2-chloromandelic acid crystals obtained in Examples 1 to 6 and Comparative examples 1 and 2 were measured regarding appearance, water content, filling density, compression rate, and particle size distribution. Each of the above items was measured according to the following methods.

[4] = Measurement of particle size distribution (sieving); conditions: for Particle size distribution 300 to 1,000 μm: sieve fraction 300 to 1,000 μm; for Particle size distribution <300 μm: sieve fraction <300 μm; for Particle size distribution 1,000 μm<: sieve fraction above 1,000 μm
Description: Measurement of Particle Size Distribution
The crystals were shifted using a microtype electromagnetic vibrating shifter (M-2 type, manufactured by Tsutsui Rikagaku Kikai Co., Ltd.), and their weight was measured, so that their particle size distribution was obtained. 20 g of the crystals was placed on a sieve with a mesh of 1,000 μm, and another sieve with a mesh of 300 μm was placed below the above sieve followed by vibration for 10 minutes.

[5] = Measurement of compression rate; conditions: (volume 1−volume 2)/volume 1
Description: Measurement of Compression Rate
An approximately 7-cm^3 chloromandelic acid crystal was passed through a funnel with a diameter of 9 mm, and it was naturally dropped into a 10 ml measuring cylinder from a height of 20 cm, so that the volume of the crystals was measured (volume 1). Thereafter, the crystals in the measuring cylinder were compressed with a glass rod until their volume was not reduced, and the volume after the compression was measured (volume 2). Compression rate was calculated according to the following formula.
Compression rate=(volume 1−volume 2)/volume 1

[6] = Flowability (flow limit diameter through glass funnels); conditions: minimum funnel inside diameter without blockage in 5 tests, 15 g crystals
Description: Glass funnels obtained by connecting glass tubes (cylindrical portions) having inside diameters of 4, 5, 6, 8, 9 and 11 mm with the edges of cones with apical angles of 60° were used. The outlet of each funnel (outlet of cylindrical portion) was closed. […] During this process, the funnel should not be shaken, and chloromandelic acid crystals should not be pushed into the funnel by compression. Thereafter, each funnel containing chloromandelic acid crystals was left at rest, the outlet of the cylindrical portion of each funnel was opened, and the crystals were naturally dropped from the outlets. This operation was carried out 5 times, using each of the above described funnels having cylindrical portions with inside diameters of 4, 5, 6, 8, 9 and 11 mm. Flow limit diameter (mm) was defined as a minimum inside diameter capable of naturally dropping the total amount of chloromandelic acid crystals in all of the above 5 tests with no blockage in the funnels. The flow limit diameter was defined as an index of fluidity.

SMILES	Adhesion rate [1]	Water content [2]	Filling density [3]	Appearance (Appearance of crystals)	Particle size distribution 300 to 1,000 μm [4]	Particle size distribution <300 μm [4]	Particle size distribution 1,000 μm< [4]	Compression rate [5]	Flow limit diameter [6]	Water content of crystal wet product ([2]; wet product after filtration and washing, before drying)
O=C(O)[C@H](O)c1ccccc1Cl [Example 1, (R)-2-chloromandelic acid]	0.057%	0.046 wt %	0.65 g/mL	Granular	73.5 weight %	15.5 weight %	11.0 weight %	0.03	5 mm	
O=C(O)[C@H](O)c1ccccc1Cl [Example 2, (R)-2-chloromandelic acid]	0.061%	0.049 wt %	0.63 g/mL	Granular	73.2 weight %	18.2 weight %	8.0 weight %	0.03	5 mm	
O=C(O)[C@H](O)c1ccccc1Cl [Example 3, (R)-2-chloromandelic acid]	0.058%	0.058 wt %	0.63 g/mL	Granular	71.0 weight %	16.6 weight %	12.4 weight %	0.03	5 mm	
O=C(O)[C@H](O)c1ccccc1Cl [Example 4, (R)-2-chloromandelic acid]	0.110%	0.062 wt %	0.68 g/mL	Granular	72.2 weight %	17.3 weight %	10.5 weight %	0.03	5 mm	10 % by weight
O=C(O)[C@H](O)c1ccccc1Cl [Example 5, (R)-2-chloromandelic acid]	0.130%	0.076 wt %	0.68 g/mL	Granular	73.1 weight %	18.4 weight %	8.5 weight %	0.03	5 mm	
O=C(O)[C@H](O)c1ccccc1Cl [Example 6, (R)-2-chloromandelic acid]	0.140%	0.080 wt %	0.64 g/mL	Granular	71.3 weight %	19.0 weight %	9.7 weight %	0.03	5 mm	
O=C(O)[C@H](O)c1ccccc1Cl [compound 1, (R)-2-chloromandelic acid, reference compound]	0.830%	0.110 wt %	0.68 g/mL	Fine	46.5 weight %	46.2 weight %	7.3 weight %	0.04	9 mm	
O=C(O)[C@H](O)c1ccccc1Cl [compound 2, (R)-2-chloromandelic acid, reference compound]	0.500%	0.005 wt %	0.29 g/mL	Scale	71.3 weight %	24.6 weight %	4.1 weight %	0.62	11 mm	
